Laboratory results: patent EP2718307B1, “BETA-HAIRPIN PEPTIDOMIMETICS AS CXC4 ANTAGONISTS” (Polyphor AG, priority 2011, dated 2012)
Bridge positions count the residues as written; N and C are the ends. Square brackets hold non-standard residues; d marks the D form. Peptide text beside a SMILES is read from it. Lys(iPr) = CC(C)NCCCC[C@H](N)C(=O)O; Orn(iPr) = CC(C)NCCC[C@H](N)C(=O)O; Dab = NCC[C@H](N)C(=O)O

Legend:
[1] = Drug loading calculations via maintenance dose rate (rate of infusion); conditions: CLiv-mouse values scaled by 0.127 (GFR human/GFR mouse)
Experimental: The drug load for an implant comprising a peptide of the invention was calculated following the basic principles in pharmacokinetics (see also J. Gabrielsson, D. Weiner, "Pharmacokinetics and Pharmaco-dynamics Data Analysis: Concepts and Applications", 4th edition, Swedish Pharmaceutical Press, Stockholm, Sweden, 2006) whereby the maintainance dose rate (rate of infusion, Rin) can be defined as the rate at which a drug is to be administered to reach a steady state of a certain dose in the plasma. The maintainance dose rate can be expressed using the correlation Rin [g/(h*kg)] = CLiv[L/(h*kg)] x Css,eff [g/L], wherein CLiv is the clearance (i.v. - admin.) and Css,eff the effective concentration of the drug in the plasma at steady state considering an efficacy margin A: Css,eff [g/L] = A x (IC50/fu) x MW [(mol/L)*(g/mol)]. Therefore, the total amount of a drug loaded into an implant providing for a constant effective concentration of that drug in the plasma for a certain period of time in a subject of a certain body weight can be calculated by applying the following correlation: Drugload [g/subject] = Rin [g/(h*kg)] x duration[h] x BW [kg/subject]. [formula]
Further pre-conditions are an efficacy margin of A = 3, a study duration of 672 h (28 days) and a body weight of a human suject of 70 kg. The glomerular filtration rate (GFR) which mainly influences the clearance of the peptides is highly dependent on the species. In general, the GFR of humans is averaged to be 107 mL/(h*kg) compared to the GFR of mouse being 840 mL/(h*kg). Therefore, the CLiv-mouse values indicated in Table 5b were allometrically scaled by 107 mL/(h*kg)/840 mL/(h*kg) = 0.127 before employed in the above described correlations.

[2] = target: T1, CXCR4 receptor (Homo sapiens, UniProt P61073); test: Chemotactic assay (cell migration assay): response of Namalwa cells to an SDF-1 gradient; assay type: cell-based
T1 construct: Namalwa cells (CXCR4 natively expressing non-adherent cells, ATCC CRL-1432); host or cells: Namalwa cells
Experimental: Namalwa cells (CXCR4 natively expressing non-adherent cells, ATCC CRL-1432) were cultured in RPMI1640 plus 10% FBS, and pen/strept. HELA cells were maintained in RPMI1640 plus 10% FBS, pen/strept and 2 mM L-glutamine. Cos-7 cells were grown in DMEM medium with […] glucose supplemented with 10% FCS, pen/strept and 2 mM L-glutamine. All cell lines were grown at 37 °C at 5% CO2. Cell media, media supplements, PBS-buffer, HEPES, antibiotic/antimycotic, pen/strept, non essential amino acid, L-glutamine, β-mercaptoethanol and sera were purchased from Gibco (Pailsey, UK). All fine chemicals were supplied by Merck (Darmstadt, Germany).
The chemotactic response of Namalwa cells (ATCC CRL-1432) to a gradient of stromal cell-derived factor 1α (SDF-1) was measured using a modified Boyden chamber chemotaxis system (ChemoTx; Neuroprobe). In this system, the upper chamber of each well is separated from the lower chamber containing the chemoattractant SDF-1 by a polycarbonate membrane (5µm pore size). A circular area of that membrane in the region that covers each lower well is enclosed by a hydrophobic mask to retain the cell suspension within this area. The system was prepared by loading the bottom wells with aliquots of […] chemotaxis medium (RPMI 1640 without Phenol red + 0.5% BSA) comprising either appropriate serial dilutions of peptides or no peptide at all in combination with SDF-1 (0.9 nM) or without the chemoattractant. The membrane was placed over the bottom wells, and aliquots of 50 µL of a suspension of Namalwa cells (3.6 x 10^6 cells/mL) in chemotaxis medium, premixed with chemotaxis medium comprising either appropriate serial dilutions of peptides or no peptide at all, was delivered onto each of the hydrophobically limited regions of the upper surface of the membrane. The cells were allowed to migrate into the bottom chamber for 5 h at 37 °C in 5% CO2. After this period, the membrane was removed and its topside was carefully wiped and washed with PBS to eliminate non-migrated cells. Migrated cells were transferred using a "funnel" adaptor to a receiving 96-well plate and the cell number was determined by using the CyQuant™ NF cell proliferation assay (Invitrogen) based on the measurement of cellular DNA content via fluorescent dye binding. Following the manufacturer's directions, 50 µL of CyQuant™ dye reagent/HBSS buffer (1/500 [v/v]) were added to each well of the above mentioned receiving 96-well plate. After incubation for 0.5 h at room temperature the plate was sealed and the fluorescence intensity of each sample was measured by using a Wallac 1420 VICTOR^2™ plate reader (PerkinElmer) with excitation at 485 nm and emission detection at 535 nm. Finally, the data were normalized by using the controls and IC50-values were determined using GraphPad Prism™ (GraphPad) by fitting a logarithmic curve to the averaged datapoints.

[3] = Plasma stability, human plasma; assay type: in vitro ADME; conditions: human plasma, 37° C, last time point 1440 min
Experimental: (§1) The stability of the peptides in human and mouse plasma was determined by applying the following method: 346.5 µL/deep well of freshly thawed human plasma (Basler Blutspende-dienst) and mouse plasma (Harlan Sera-Lab, UK), respectively, were spiked with 3.5 µL/well of compound dissolved in DMSO/H2O (90/10 [v/v], 1 mM, triplicate) and incubated at 37° C. At t = 0, 15, 30, 60, 120, 240 and 1440 min aliquots of 50 µL were transferred to filtration plate wells containing 150 µL/well of 2% formic acid in acetonitrile. Following shaking for 2 min the occurred suspensions were filtrated by vacuum. 100 µL of each filtrate were transferred to a propylene microtiter plate and dried under N2. The residual solids were reconstituted by adding 100 µL/well of water/acetonitrile, 95/5 (v/v) + 0.2% formic acid and analyzed by LC/MS as follows: Column: Waters, XBridge C18, mobile phases: (A) water + 0.1% formic acid and (B) acetonitrile/water, 95/5 (v/v) + 0.1% formic acid, gradient: 5%-100% (B) in 1.8 minutes, electrospray ionization, MRM detection (triple quadrupole). The peak areas were determined and triplicate values are averaged. The stability is expressed in percent of the initial value at t = 0. (tx/t0 x 100). By using the TREND function of EXCEL (Microsoft Office 2003) T1/2 were determined.

[4] = tested on: human red blood cells (hRBC); test: Hemolysis; assay type: cell-based; conditions: 100 µM, 20% hRBC, 1 h at 37°C
Experimental: The peptides were tested for their hemolytic activity against human red blood cells (hRBC). Fresh hRBC were washed four times with phosphate buffered saline (PBS) and centrifuged for 10 min at 3000 x g. Compounds (100 µM) were incubated with 20% hRBC (v/v) for 1 h at 37°C and shaking at 300 rpm. The final erythrocyte concentration was approximately 0.9 x 10^9 cells/mL. A value of 0% and 100% cell lysis, respectively, was determined by incubation of hRBC in the presence of PBS containing 0.001% acetic acid and 2.5% Triton X-100 in H2O respectively. The samples were centrifuged, the supernatants were 8-fold diluted in PBS buffer and the optical densities (OD) were measured at 540 nm. The 100% lyses value (OD540H2O) gave an OD540 of approximately 0.5-1.0. Percent hemolysis was calculated as follows: (OD540peptide/OD540H2O) x 100%. [formula]

[5] = Plasma stability, mouse plasma; assay type: in vitro ADME; conditions: mouse plasma, 37° C, last time point 1440 min
Experimental: as §1

T1 sequence (P61073 whole entry): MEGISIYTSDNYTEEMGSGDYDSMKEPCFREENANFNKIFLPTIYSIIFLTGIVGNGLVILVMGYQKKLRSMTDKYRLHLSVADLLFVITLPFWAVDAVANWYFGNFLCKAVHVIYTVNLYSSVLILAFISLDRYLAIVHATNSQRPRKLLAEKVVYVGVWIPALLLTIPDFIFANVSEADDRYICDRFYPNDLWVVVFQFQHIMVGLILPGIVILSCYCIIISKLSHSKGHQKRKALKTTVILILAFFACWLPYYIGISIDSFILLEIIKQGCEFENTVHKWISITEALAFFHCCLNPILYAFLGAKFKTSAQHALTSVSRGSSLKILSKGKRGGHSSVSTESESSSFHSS

| SMILES | CLiv, human (allometric scaled) [1] | IC50 [2] | Plasma stability human pl. T1/2 [3] | Hemolysis at 100 µM [4] | Plasma stability mouse pl. T1/2 [5] |
| --- | --- | --- | --- | --- | --- |
| CC(C)NCCCC[C@@H]1NC(=O)[C@H](CCC(N)=O)NC(=O)[C@H](Cc2ccc(O)cc2)NC(=O)[C@@H]2CSSC[C@H](NC(=O)[C@H](Cc3ccc(O)cc3)NC(=O)[C@H](Cc3c[nH]cn3)NC(=O)[C@H](Cc3ccc(O)cc3)NC(=O)[C@@H]3CCCN3C(=O)[C@H]3CCCN3C1=O)C(=O)N[C@@H](CO)C(=O)N[C@@H](C)C(=O)N[C@H](Cc1ccc(O)cc1)C(=O)N[C@@H](CCCNC(C)C)C(=O)N[C@@H](CCCNC(=N)N)C(=O)N[C@@H](Cc1ccc(O)cc1)C(=O)N2 [Ex. 5, cyclo(-Tyr^1-His^2-Tyr^3-Cys^4-Ser^5-Ala^6-^DTyr^7-Orn(iPr)^8-Arg^9-Tyr^10-Cys^11-Tyr^12-Gln^13-Lys(iPr)^14-^DPro^15-Pro^16-), disulfide bond between Cys^4 and Cys^11] (cyclo(YHYCSA[dY][Orn(iPr)]RYCYQ[Lys(iPr)][dP]P); disulfide 4-11) | 1.77 mL/min/kg | 0.43 ± 0.24 nM | 24 h | 3.5% | 24 h |
| CC(C)NCCCC[C@@H]1NC(=O)[C@H](CCC(N)=O)NC(=O)[C@H](Cc2ccc(O)cc2)NC(=O)[C@@H]2CSSC[C@H](NC(=O)[C@H](C)NC(=O)[C@H](Cc3c[nH]cn3)NC(=O)[C@H](Cc3ccc(O)cc3)NC(=O)[C@@H]3CCCN3C(=O)[C@H]3CCCN3C1=O)C(=O)N[C@@H](CO)C(=O)N[C@@H](C)C(=O)N[C@H](Cc1ccc(O)cc1)C(=O)N[C@@H](CCN)C(=O)N[C@@H](CCCNC(=N)N)C(=O)N[C@@H](Cc1ccc(O)cc1)C(=O)N2 [Ex. 3, cyclo(-Tyr^1-His^2-Ala^3-Cys^4-Ser^5-Ala^6-^DTyr^7-Dab^8-Arg^9-Tyr^10-Cys^11-Tyr^12-Gln^13-Lys(iPr)^14-^DPro^15-Pro^16-), disulfide bond between Cys^4 and Cys^11] (cyclo(YHACSA[dY][Dab]RYCYQ[Lys(iPr)][dP]P); disulfide 4-11) | 2.35 mL/min/kg | 0.11 ± 0.01 nM | 24 h | 1.0% | 24 h |
